Where a name gives a salt, the structure may show the parent alone. Read-outs that look alike come from different tables or passages of the source.
Columns and labels:
[1] = biological target: acetylcholinesterase (AChE) derived from human (Homo sapiens, UniProt P22303); test: biochemical
[2] = biological target: butyrylcholinesterase (BChE) derived from human (Homo sapiens, UniProt P06276); test: biochemical
[3] = Acute toxicity after oral administration; conditions: rat, in vivo; oral administration to rats; read-out: acute toxicity values (LD₅₀)
Protocol: The acute toxicity values (LD₅₀) of the compounds of the present invention 6 and 41 after oral administration to rats were not less than 50 mg/kg.

[4] = biological target: T1, acetylcholinesterase (AChE) (Rattus norvegicus, UniProt P37136); test: biochemical; design: species or system male Wistar rat
T1 construct: An enzyme solution was a homogenized solution of forebrain from male Wistar rat; from tissue; host or cells: forebrain of male Wistar rat (homogenate)
T1 sequence (P37136 32-614): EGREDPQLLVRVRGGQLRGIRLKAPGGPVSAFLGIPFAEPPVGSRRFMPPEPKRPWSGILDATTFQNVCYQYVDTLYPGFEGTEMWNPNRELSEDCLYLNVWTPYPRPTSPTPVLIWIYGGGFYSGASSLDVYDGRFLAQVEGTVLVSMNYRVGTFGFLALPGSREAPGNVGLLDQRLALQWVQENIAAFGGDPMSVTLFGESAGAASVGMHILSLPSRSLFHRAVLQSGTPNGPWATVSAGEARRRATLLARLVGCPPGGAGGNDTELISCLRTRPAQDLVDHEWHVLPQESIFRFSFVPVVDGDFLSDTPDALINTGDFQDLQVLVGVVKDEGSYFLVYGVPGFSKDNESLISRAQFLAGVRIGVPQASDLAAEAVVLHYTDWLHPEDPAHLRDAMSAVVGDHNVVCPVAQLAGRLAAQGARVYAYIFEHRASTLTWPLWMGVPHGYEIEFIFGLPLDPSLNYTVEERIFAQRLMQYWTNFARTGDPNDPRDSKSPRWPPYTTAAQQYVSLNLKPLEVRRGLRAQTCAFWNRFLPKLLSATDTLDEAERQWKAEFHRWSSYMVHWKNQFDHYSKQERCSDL
Protocol: An enzyme solution was a homogenized solution of forebrain from male Wistar rat in 0.1M phosphate buffer (pH 8.0). Acetylthiocholine was used as a substrate for acetylcholinesterase (AChE) and the density of thionitrobenzoate (yellow) produced by the following reaction was measured with a spectrophotometer (OD₄₁₂). [drawing 27] Thiocholine + dithiobisnitrobenzoate → thionitrobenzoate Test compounds were dissolved in dimethylsulfoxide and diluted with 0.1M phosphate buffer (pH 8.0).

[5] = biological target: sigma receptor; test: Sigma receptor binding test (3H-DTG, rat cerebral cortex membrane fractions); design: species or system Male Wistar rats; conditions: rat cerebral cortex membranes, 3H-DTG 2.5 nM, 25°C 60 minutes, Ki = IC50/[1 + (L/Kd)], Kd 26.3 nM; read-out: Sigma receptor binding assay ³H-DTG (Ki)
Protocol: Male Wistar rats weighing 250-300 g were decapitated and the brains were removed. Cerebral cortex was dissected on ice, and the brain tissues were homogenized in 20 volumes of Tris-HCl buffer (pH 8.0, 25°C) containing 320 mM sucrose. The homogenate was centrifuged at 1000 × g for 10 minutes. The obtained supernatant was centrifuged at 31,000 × g for 15 minutes and the pellets obtained were suspended in the same Tris-HCl buffer, followed by incubation at 37°C for 10 minutes. Centrifugation was repeated twice and the final pellets were suspended in 50 mM Tris-HCl buffer (pH 8.0, 25°C) and used as membrane fractions.
A binding inhibitory test was conducted by adding [³H]-1,3-di-o-tolylguanidine (³H-DTG, 39.4 Ci/mmol, New England Nuclear, final concentration 2.5 nM) and respective test compounds (5 different concentrations) to the membrane fractions (0.9 ml, 0.5-0.8 mg) and then the above-mentioned buffer to the final volume of 1 ml. The mixtures were incubated at 25°C for 60 minutes. The reaction mixture was suction-filtered through Whatman GF/B filters which had been treated previously with 0.1% polyethyleneimine and washed three times with 3 ml of 10 mM Tris-HCl buffer (pH 7.7, 25°C). Then, the β rays of the bound ³H-DTG on the filter were measured by a liquid scintillation counter.
IC₅₀ values were determined graphically and Ki values were calculated by the numerical equation Ki = IC₅₀/[1 + (L/Kd)] [formula] wherein L is a concentration of radioligand and Kd (26.3 nM) is a dissociation constant between tritiated ligand and the receptor.

[6] = AChE derived from human, substrate acetylthiocholine, read-out: IC₅₀ AChE
[7] = IC50 for human BChE divided by IC50 for human AChE
[8] = homogenized forebrain of male Wistar rat, substrate acetylthiocholine, 0.1M phosphate buffer pH 8.0, read-out: Acetylcholinesterase inhibition IC₅₀
[9] = BChE derived from human, substrate butyrylthiocholine, read-out: IC₅₀ BChE

Sequence of acetylcholinesterase (AChE) derived from human (P22303 32-614): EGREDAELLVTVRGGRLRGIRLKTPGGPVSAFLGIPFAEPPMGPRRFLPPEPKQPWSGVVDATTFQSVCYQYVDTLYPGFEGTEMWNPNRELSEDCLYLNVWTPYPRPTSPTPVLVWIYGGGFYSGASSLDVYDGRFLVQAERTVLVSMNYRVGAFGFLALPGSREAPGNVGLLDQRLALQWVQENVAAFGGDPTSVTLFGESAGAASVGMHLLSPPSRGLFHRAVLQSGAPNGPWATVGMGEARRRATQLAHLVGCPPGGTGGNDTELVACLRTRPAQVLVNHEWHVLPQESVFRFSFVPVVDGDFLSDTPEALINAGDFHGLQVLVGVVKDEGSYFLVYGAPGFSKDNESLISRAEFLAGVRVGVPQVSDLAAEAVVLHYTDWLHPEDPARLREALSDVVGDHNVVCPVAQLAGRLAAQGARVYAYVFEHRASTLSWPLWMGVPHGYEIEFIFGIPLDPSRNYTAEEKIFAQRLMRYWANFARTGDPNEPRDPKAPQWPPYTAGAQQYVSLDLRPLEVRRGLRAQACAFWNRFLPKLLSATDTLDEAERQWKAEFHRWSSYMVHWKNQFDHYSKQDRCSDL
Sequence of butyrylcholinesterase (BChE) derived from human (P06276 29-602): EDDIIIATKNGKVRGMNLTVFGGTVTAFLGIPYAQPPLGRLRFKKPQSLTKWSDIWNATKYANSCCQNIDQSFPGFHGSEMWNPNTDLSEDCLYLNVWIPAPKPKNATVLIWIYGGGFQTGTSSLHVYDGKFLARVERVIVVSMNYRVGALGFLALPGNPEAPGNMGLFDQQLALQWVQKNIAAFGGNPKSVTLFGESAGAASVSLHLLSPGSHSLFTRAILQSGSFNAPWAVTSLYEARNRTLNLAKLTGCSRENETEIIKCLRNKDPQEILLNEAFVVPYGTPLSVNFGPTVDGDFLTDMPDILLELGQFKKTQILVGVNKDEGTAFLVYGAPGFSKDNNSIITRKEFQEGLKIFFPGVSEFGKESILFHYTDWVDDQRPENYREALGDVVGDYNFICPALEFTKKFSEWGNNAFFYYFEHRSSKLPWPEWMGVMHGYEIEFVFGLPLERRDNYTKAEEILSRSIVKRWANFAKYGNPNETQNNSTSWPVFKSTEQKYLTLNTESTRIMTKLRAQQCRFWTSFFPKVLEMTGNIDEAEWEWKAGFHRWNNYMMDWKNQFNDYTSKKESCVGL

Structure (SMILES) | IC50 [1, 6] | Selectivity IC₅₀ (BChE)/IC₅₀ (AChE) [1, 7] | Ki [5] | also measured
CC(=O)Nc1ccc2c(CCC3CCN(Cc4ccccc4)CC3)noc2c1 [Example 6, 6-acetylamino-3-(2-(1-benzyl-4-piperidyl)ethyl)-1,2-benzisoxazole] | 2.1 nM | – | – | Selectivity IC₅₀ (BChE)/IC₅₀ (AChE) [1]: 4,500; IC50 [2]: 9500 nM; LD50 [3]: ≥ 50 mg/kg
CN(C)C(=S)Oc1ccc2c(CCC3CCN(Cc4ccccc4)CC3)noc2c1 [Example 11] | – | >20,000 | – | IC50 [1]: 0.5 nM; IC50 [2]: > 10000 nM
COc1ccc2c(CCC3CCN(Cc4ccccc4)CC3)noc2c1OC [Example 19, 3-(2-(1-benzyl-4-piperidyl)ethyl)-6,7-dimethoxy-1,2-benzisoxazole] | 1.8 nM | 4,200 | – | IC50 [4, 8]: 0.38 nM; IC50 [2, 9]: 7500 nM
CNC(=O)Oc1cccc(CN2CCC(CCc3noc4c(OC)c(OC)ccc34)CC2)c1 [Example 23, 3-(2-(1-(3-(N-methylcarbamoyloxy)benzyl)-4-piperidyl)ethyl)-6,7-dimethoxy-1,2-benzisoxazole] | – | – | – | IC50 [4]: 0.34 nM
CC(=O)N(C)c1ccc2c(CCC3CCN(Cc4ccccc4)CC3)noc2c1 [Example 41, 3-(2-(1-Benzyl-4-piperidyl)ethyl)-6-(N-methylacetamino)-1,2-benzisoxazole] | 4.6 nM | 3,700 | – | IC50 [2, 9]: 17000 nM; LD50 [3]: ≥ 50 mg/kg
Cc1ccc2onc(OCCC3CCN(CC4CCCCC4)CC3)c2c1 [Example 160, 3-(2-(1-Cyclohexylmethyl-4-piperidyl)ethyloxy)-5-methyl-1,2-benzisoxazole fumarate] | – | – | 0.23 nM | –
Cc1ccc2c(OCCC3CCN(CC4CCCCC4)CC3)noc2c1 [Example 164, 3-(2-(1-Cyclohexylmethyl-4-piperidyl)ethyloxy)-6-methyl-1,2-benzisoxazole fumarate] | – | – | 0.37 nM | –
O=C(Nc1ccc2c(=O)n(CCCC3CCN(Cc4ccccc4)CC3)oc2c1)c1ccccc1 [Example 198, 6-benzoylamino-2-(3-(1-benzyl-4-piperidyl)propyl)-1,2-benzisoxazol-3(2H)-one] | 0.94 nM | 3,800 | – | IC50 [2, 9]: 3600 nM
Cc1ccc2c(=O)n(CCC3CCN(CC4CCCCC4)CC3)oc2c1 [Example 227, 2-(2-(1-Cyclohexylmethyl-4-piperidyl)ethyl)-6-methyl-1,2-benzisoxazol-3(2H)-one fumarate] | – | – | 0.55 nM | –
Cc1ccc2on(CCC3CCN(CC4CCCCC4)CC3)c(=O)c2c1 [Example 231, 2-(2-(1-Cyclohexylmethyl-4-piperidyl)ethyl)-5-methyl-1,2-benzisoxazol-3(2H)-one fumarate] | – | – | 0.42 nM | –
O=C(Nc1ccc2c(=O)n(CCC3CCN(Cc4ccccc4)CC3)oc2c1)c1ccccc1 [Example 252, 6-Benzoylamino-2-(2-(1-benzyl-4-piperidyl)ethyl)-1,2-benzisoxazol-3(2H)-one] | – | – | – | IC50 [4, 8]: 0.73 nM

From EP0602242A1, “BENZISOXAZOLE COMPOUND AND USE THEREOF” (priority 1991, dated 1993)
